Active and inactive are the calls of the source. The calls are words filed in the database; no cut-off is given here.
What was measured:
[1] = tested on: CCRF-CEM; test: Induction of apoptosis in human CCRF-CEM cells assessed as viable cells at 1 times IC50 concentration incubated for 24 hrs by annexin V FITC/propidium iodide staining based flow cytometry (reference value: 96 %); type: functional
[2] = tested on: CCRF-CEM; test: Induction of cell cycle arrest in human CCRF-CEM cells assessed as accumulation of cells at G1 phase at 1 times IC50 concentration incubated for 24 to 72 hrs by propidium iodide staining based flow cytometry; type: functional; details: time 24-72 hrs
[3] = Apparent permeability across apical to basolateral side in dog MDCK-MDR1 cells incubated for 1 hr by high-throughput spectrometric analysis; type: ADME, cell-based, Canis lupus familiaris
[4] = Chemical stability of the compound in PBS buffer assessed as compound remaining at pH 7.4 at 2 uM measured after 60 mins by RF-MS analysis; type: physicochemical; details: read-out: Stability
[5] = tested on: CCRF-CEM; test: Induction of apoptosis in human CCRF-CEM cells assessed as decrease in Rb phosphorylation level at Ser780 at 5 times IC50 concentration incubated for 24 hrs by western blot assay; type: functional, cell-based
[6] = tested on: HCT-116; test: Cytotoxicity against human HCT-116 cells assessed as inhibition of cell growth incubated for 72 hrs by MTS assay; type: functional, cell-based; details: HCT-116, 72 h
[7] = Chemical stability of the compound in PBS buffer assessed as compound remaining at pH 7.4 at 2 uM measured after 15 mins by RF-MS analysis; type: physicochemical; details: read-out: Stability
[8] = Microsomal stability in human liver microsome as compound remaining at 2 uM measured after 60 mins in presence of NADPH by RF-MS analysis; type: ADME; details: liver microsomes, read-out: Stability
[9] = Plasma stability in human assessed as compound remaining at 2 uM measured after 15 mins by RF-MS analysis; type: ADME, cell-free; details: read-out: Stability
[10] = Chemical stability of the compound in PBS buffer assessed as compound remaining at pH 7.4 at 2 uM measured after 30 mins by RF-MS analysis; type: physicochemical; details: read-out: Stability
[11] = Plasma stability in human assessed as compound remaining at 2 uM measured after 30 mins by RF-MS analysis; type: ADME, cell-free; details: read-out: Stability
[12] = Apparent permeability across apical to basolateral side in dog MDCK-MDR1 cells assessed as drug recovery incubated for 1 hr by high-throughput spectrometric analysis; type: ADME, cell-based, Canis lupus familiaris; details: read-out: Drug recovery
[13] = tested on: CCRF-CEM; test: Induction of apoptosis in human CCRF-CEM cells assessed as late apoptotic cells at 1 times IC50 concentration incubated for 24 hrs by annexin V FITC/propidium iodide staining based flow cytometry (reference value: 1.4 %); type: functional
[14] = Microsomal stability in human liver microsome as compound remaining at 2 uM measured after 30 mins in presence of NADPH by RF-MS analysis; type: ADME; details: liver microsomes, read-out: Stability
[15] = tested on: CCRF-CEM; test: Induction of apoptosis in human CCRF-CEM cells assessed as late apoptotic cells at 5 times IC50 concentration incubated for 24 hrs by annexin V FITC/propidium iodide staining based flow cytometry (reference value: 1.4 %); type: functional
[16] = Microsomal stability in human liver microsome as compound remaining at 2 uM measured after 15 mins in presence of NADPH by RF-MS analysis; type: ADME; details: liver microsomes, read-out: Stability
[17] = tested on: A549; test: Cytotoxicity against human A549 cells assessed as inhibition of cell growth incubated for 72 hrs by MTS assay; type: functional, cell-based; details: A549, 72 h
[18] = Plasma stability in human assessed as compound remaining at 2 uM measured after 120 mins by RF-MS analysis; type: ADME, cell-free; details: read-out: Stability
[19] = tested on: CCRF-CEM; test: Induction of cell cycle arrest in human CCRF-CEM cells assessed as accumulation of cells at G1 phase at 5 times IC50 concentration incubated for 24 to 72 hrs by propidium iodide staining based flow cytometry; type: functional; details: time 24-72 hrs
[20] = tested on: CCRF-CEM; test: Induction of apoptosis in human CCRF-CEM cells assessed as effect on total Rb protein level at 5 times IC50 concentration incubated for 24 hrs by western blot assay; type: functional, cell-based
[21] = tested on: CCRF-CEM; test: Induction of apoptosis in human CCRF-CEM cells assessed as early apoptotic cells at 1 times IC50 concentration incubated for 24 hrs by annexin V FITC/propidium iodide staining based flow cytometry (reference value: 2.6 %); type: functional
[22] = Plasma protein binding in human assessed as fraction bound at 10 uM incubated for 4 hrs by rapid equilibrium dialysis based RF-MS analysis; type: ADME, cell-free; details: read-out: PPB (converted)
[23] = Efflux ratio of apparent permeability from basolateral to apical side over apical to basolateral side in human Caco-2 cells incubated for 2 hr by high-throughput spectrometric analysis; type: ADME, cell-based
[24] = tested on: CEM-DNR; test: Cytotoxicity against human CEM-DNR cells assessed as inhibition of cell growth incubated for 72 hrs by MTS assay; type: functional, cell-based
[25] = tested on: CCRF-CEM; test: Induction of apoptosis in human CCRF-CEM cells assessed as decrease in cyclin A protein expression level at 5 times IC50 concentration incubated for 24 hrs by western blot assay; type: functional, cell-based
[26] = Cytotoxicity against human MRC5 cells assessed as inhibition of cell growth incubated for 72 hrs by MTS assay; type: toxicity, cell-based
[27] = Cytotoxicity against human K562-Tax cells assessed as inhibition of cell growth incubated for 72 hrs by MTS assay; type: functional, cell-based
[28] = tested on: CCRF-CEM; test: Induction of cell cycle arrest in human CCRF-CEM cells assessed as decrease of cell population at S phase at 1 times IC50 concentration incubated for 24 to 72 hrs by propidium iodide staining based flow cytometry; type: functional; details: time 24-72 hrs
[29] = Cytotoxicity against human BJ cells assessed as inhibition of cell growth incubated for 72 hrs by MTS assay; type: toxicity, cell-based
[30] = Chemical stability of the compound in PBS buffer assessed as compound remaining at pH 7.4 at 2 uM measured after 120 mins by RF-MS analysis; type: physicochemical; details: read-out: Stability
[31] = tested on: CCRF-CEM; test: Induction of cell cycle arrest in human CCRF-CEM cells assessed as decrease of cell population at S phase at 5 times IC50 concentration incubated for 24 to 72 hrs by propidium iodide staining based flow cytometry; type: functional; details: time 24-72 hrs
[32] = Apparent permeability across apical to basolateral side in human Caco-2 cells assessed as drug recovery incubated for 2 hr by high-throughput spectrometric analysis; type: ADME, cell-based; details: read-out: Drug recovery
[33] = Efflux ratio of apparent permeability from basolateral to apical side over apical to basolateral side in dog MDCK-MDR1 cells incubated for 1 hr by high-throughput spectrometric analysis; type: ADME, cell-based, Canis lupus familiaris
[34] = tested on: U2OS; test: Cytotoxicity against human U2OS cells assessed as inhibition of cell growth incubated for 72 hrs by MTS assay; type: functional, cell-based
[35] = tested on: CCRF-CEM; test: Induction of apoptosis in human CCRF-CEM cells assessed as early apoptotic cells at 5 times IC50 concentration incubated for 24 hrs by annexin V FITC/propidium iodide staining based flow cytometry (reference value: 2.6 %); type: functional
[36] = tested on: CCRF-CEM; test: Induction of apoptosis in human CCRF-CEM cells assessed as viable cells at 5 times IC50 concentration incubated for 24 hrs by annexin V FITC/propidium iodide staining based flow cytometry (reference value: 96 %); type: functional
[37] = tested on: K562; test: Cytotoxicity against human K562 cells assessed as inhibition of cell growth incubated for 72 hrs by MTS assay; type: functional, cell-based; details: K562, 72 h
[38] = Apparent permeability across apical to basolateral side in human Caco-2 cells incubated for 2 hr by high-throughput spectrometric analysis; type: ADME, cell-based
[39] = tested on: CCRF-CEM; test: Induction of apoptosis in human CCRF-CEM cells assessed as decrease in cell number at 5 times IC50 concentration incubated for 24 to 74 hrs by annexin V FITC/propidium iodide staining based flow cytometry; type: functional; details: time 24-74 hrs
[40] = tested on: CCRF-CEM; test: Induction of apoptosis in human CCRF-CEM cells assessed as decrease in cell number at 1 times IC50 concentration incubated for 24 to 74 hrs by annexin V FITC/propidium iodide staining based flow cytometry; type: functional; details: time 24-74 hrs
[41] = Cytotoxicity against human p53HCT116 cells assessed as inhibition of cell growth incubated for 72 hrs by MTS assay; type: functional, cell-based; details: p53HCT116, 72 h
[42] = tested on: CCRF-CEM; test: Induction of apoptosis in human CCRF-CEM cells assessed as effect on total Rb protein level at 1 times IC50 concentration incubated for 24 hrs by western blot assay; type: functional, cell-based
[43] = tested on: CCRF-CEM; test: Induction of apoptosis in human CCRF-CEM cells assessed as decrease in Rb phosphorylation level at Ser807/811 at 5 times IC50 concentration incubated for 24 hrs by western blot assay; type: functional, cell-based
[44] = tested on: CCRF-CEM; test: Cytotoxicity against human CCRF-CEM cells assessed as inhibition of cell growth incubated for 72 hrs by MTS assay; type: functional, cell-based
[45] = tested on: CCRF-CEM; test: Induction of apoptosis in human CCRF-CEM cells assessed as decrease in Bcl-2 protein expression level at 5 times IC50 concentration incubated for 24 hrs by western blot assay; type: functional, cell-based
[46] = Plasma stability in human assessed as compound remaining at 2 uM measured after 60 mins by RF-MS analysis; type: ADME, cell-free; details: read-out: Stability

With `C=C(C)[C@@H]1CC[C@]2(C(=O)O)CC[C@]3(C)[C@H](CC[C@@H]4[C@@]5(C)CC=C(c6cccc(O)c6)C(C)(C)[C@@H]5CC[C@]43C)[C@@H]12` the Activity [1] was 94.5%, the Activity [2] was “Active” and the Papp A→B at 1 h [3] was 8.84 ×10⁻⁶ cm/s. The remaining at 1 h, 2 µM [4] was 102%, the Activity [5] was “Active” and the IC50 [6] was 4 µM. The remaining at 0.25 h, 2 µM [7] was 99.6%, the remaining at 1 h, 2 µM [8] was 95.8% and the remaining at 0.25 h, 2 µM [9] was 90.3%. It also gave a remaining at 0.5 h, 2 µM [10] of 93.5%, a remaining at 0.5 h, 2 µM [11] of 87.4% and a recovery at 1 h [12] of 67.6%. It also gave an Activity [13] of 2.1%, a remaining at 0.5 h, 2 µM [14] of 97.8% and an Activity [15] of 5%. The remaining at 0.25 h, 2 µM [16] was 99.3%, the IC50 [17] was 14 µM and the remaining at 2 h, 2 µM [18] was 86.7%. The Activity [19] was 20%, the Activity [20] was “inactive” and the Activity [21] was 3.4%. The fraction unbound at 4 h, 10 µM [22] was 0.334, the efflux ratio at 2 h [23] was 1.72 and the IC50 [24] was 4 µM. For the same compound, the Activity [25] was “Active”, the IC50 at 72 h [26] was 19 µM and the IC50 [27] was 3.8 µM. For the same compound, the Activity [28] was “Active”, the IC50 at 72 h [29] was 31 µM and the remaining at 2 h, 2 µM [30] was 105%. The Activity [31] was “Active”, the recovery at 2 h [32] was 97.5% and the efflux ratio at 1 h [33] was 1.29. It also gave an IC50 [34] of 17 µM, an Activity [35] of 6% and an Activity [36] of 89%. The IC50 [37] was 19 µM, the Papp A→B at 2 h [38] was 2.32 ×10⁻⁶ cm/s and the Activity [39] was “Active”. The Activity [40] was “Active”, the IC50 [41] was 12 µM and the Activity [42] was “inactive”. The Activity [43] was “Active”, the IC50 [44] was 3.9 µM and the Activity [45] was “Active”. The remaining at 1 h, 2 µM [46] was 85.6%.

— ChEMBL document CHEMBL5247620, “Lupane derivatives containing various aryl substituents in the position 3 have selective cytostatic effect in leukemic cancer cells including resistant phenotypes” (Eur J Med Chem, 2022)
